Reference: the NIST ThermoML archive (doi:10.1021/acs.jced.6b00121)

Experiment: xn = mol fraction of the nth substance listed
Settings: 100 kPa, Liquid; for viscosity: Falling or rolling sphere viscometry; for mass density: Vibrating tube method

CCCCCCCCCCC [undecane] + CCCO
Settings | mass density, 303.15 K [kg/m3] | mass density, 308.15 K [kg/m3] | mass density, 313.15 K [kg/m3] | mass density, 318.15 K [kg/m3] | viscosity, 303.15 K [mPa·s] | viscosity, 308.15 K [mPa·s] | viscosity, 313.15 K [mPa·s] | viscosity, 318.15 K [mPa·s] | viscosity, 323.15 K [mPa·s]
x1 = 0.1003 | 778.73 | 774.69 | 770.6 | 766.466 | – | 1.333 | 1.198 | 1.079 | 0.976
x1 = 0.2009 | 767.15 | 763.12 | 759.04 | 754.911 | – | 1.196 | 1.08 | 0.979 | 0.889
x1 = 0.3004 | 758.59 | 754.57 | 750.52 | 746.411 | – | 1.106 | 1.004 | 0.913 | 0.828
x1 = 0.3997 | 752.04 | 748.05 | 744.02 | 739.944 | – | 1.025 | 0.935 | 0.856 | 0.786
x1 = 0.4998 | 746.9 | 742.93 | 738.93 | 734.891 | – | 0.968 | 0.888 | 0.816 | 0.754
x1 = 0.6005 | 742.64 | 738.71 | 734.75 | 730.749 | 1.012 | 0.929 | 0.855 | 0.789 | 0.732
x1 = 0.6974 | 739.34 | 735.45 | 731.52 | 727.572 | 0.978 | 0.901 | 0.833 | 0.772 | 0.717
x1 = 0.8 | 736.55 | 732.7 | 728.83 | 724.934 | 0.961 | 0.886 | 0.821 | 0.763 | 0.712
x1 = 0.8963 | 734.41 | 730.61 | 726.79 | 722.953 | 0.957 | 0.885 | 0.822 | 0.765 | 0.715
x1 = 1 | 732.93 | 729.23 | 725.53 | 721.818 | 0.982 | 0.91 | 0.847 | 0.79 | 0.74
